# Experimental data published in ChEMBL document CHEMBL5036314, “Structure-Guided Design of the First Noncovalent Small-Molecule Inhibitor of CRM1” (J Med Chem, 2021).
# Activity calls are given as the source filed them. The rule behind the calls is not given here.
# What was measured:
# HeLa [1] = assay: Anti-cancer activity against human HeLa cells assessed as cell survival at 10 uM for 72 hrs replaced with compound containing fresh culture medium every 12 hrs by Sulforhodamine B assay; type: functional, cell-based
# A549 [2] = assay: Anti-cancer activity against human A549 cells assessed as cell survival at 10 uM for 72 hrs replaced with compound containing fresh culture medium every 12 hrs by Sulforhodamine B assay; type: functional, cell-based
# HCT-116 = assay: Anti-cancer activity against human HCT-116 cells assessed as cell survival at 10 uM for 72 hrs replaced with compound containing fresh culture medium every 12 hrs by Sulforhodamine B assay; type: functional, cell-based
# MGC-803 = assay: Anti-cancer activity against human MGC-803 cells assessed as cell survival at 10 uM for 72 hrs replaced with compound containing fresh culture medium every 12 hrs by Sulforhodamine B assay; type: functional, cell-based
# HepG2 [3] = assay: Anti-cancer activity against human HepG2 cells assessed as cell survival at 10 uM for 72 hrs replaced with compound containing fresh culture medium every 12 hrs by Sulforhodamine B assay; type: functional, cell-based
# HGC-27 = assay: Anti-cancer activity against human HGC-27 cells assessed as cell survival at 10 uM for 72 hrs replaced with compound containing fresh culture medium every 12 hrs by Sulforhodamine B assay; type: functional, cell-based
# Huh-7 = assay: Anti-cancer activity against human HuH-7 cells assessed as cell survival at 10 uM for 72 hrs replaced with compound containing fresh culture medium every 12 hrs by Sulforhodamine B assay; type: functional, cell-based
# SW48 = assay: Anti-cancer activity against human SW48 cells assessed as cell survival at 10 uM for 72 hrs replaced with compound containing fresh culture medium every 12 hrs by Sulforhodamine B assay; type: functional, cell-based
# PANC-1 = assay: Anti-cancer activity against human PANC-1 cells assessed as cell survival at 10 uM for 72 hrs replaced with compound containing fresh culture medium every 12 hrs by Sulforhodamine B assay; type: functional, cell-based
# A2780 [4] = assay: Anti-cancer activity against human A2780 cells assessed as cell survival at 10 uM for 72 hrs replaced with compound containing fresh culture medium every 12 hrs by Sulforhodamine B assay; type: functional, cell-based
# HeLa [5] = assay: Anti-cancer activity against human HeLa cells assessed as cell viability at 20 uM incubated for 2 hrs by EdU incorporation based assay; type: functional
# [6] = molecular target: Exportin-1 (Saccharomyces cerevisiae) (UniProt P30822); assay: Inhibition of GST-NES MVM binding to yeast CRM1 at 20 uM by pull down assay
# Saccharomyces cerevisiae = assay: Inhibition of NES binding to yeast CRM1-T539 mutant in absence of RanGTP at 20 uM by pull down assay
# Exportin-1 [7] = molecular target: T1, Exportin-1 (Homo sapiens, UniProt O14980); assay: Binding affinity to wild type human CRM1 transfected HeLa cells assessed as inhibition of nuclear export of cargoes at 2 uM incubated for 12 hrs by confocal microscope analysis; type: cell-based
# T1 sequence (O14980 whole entry): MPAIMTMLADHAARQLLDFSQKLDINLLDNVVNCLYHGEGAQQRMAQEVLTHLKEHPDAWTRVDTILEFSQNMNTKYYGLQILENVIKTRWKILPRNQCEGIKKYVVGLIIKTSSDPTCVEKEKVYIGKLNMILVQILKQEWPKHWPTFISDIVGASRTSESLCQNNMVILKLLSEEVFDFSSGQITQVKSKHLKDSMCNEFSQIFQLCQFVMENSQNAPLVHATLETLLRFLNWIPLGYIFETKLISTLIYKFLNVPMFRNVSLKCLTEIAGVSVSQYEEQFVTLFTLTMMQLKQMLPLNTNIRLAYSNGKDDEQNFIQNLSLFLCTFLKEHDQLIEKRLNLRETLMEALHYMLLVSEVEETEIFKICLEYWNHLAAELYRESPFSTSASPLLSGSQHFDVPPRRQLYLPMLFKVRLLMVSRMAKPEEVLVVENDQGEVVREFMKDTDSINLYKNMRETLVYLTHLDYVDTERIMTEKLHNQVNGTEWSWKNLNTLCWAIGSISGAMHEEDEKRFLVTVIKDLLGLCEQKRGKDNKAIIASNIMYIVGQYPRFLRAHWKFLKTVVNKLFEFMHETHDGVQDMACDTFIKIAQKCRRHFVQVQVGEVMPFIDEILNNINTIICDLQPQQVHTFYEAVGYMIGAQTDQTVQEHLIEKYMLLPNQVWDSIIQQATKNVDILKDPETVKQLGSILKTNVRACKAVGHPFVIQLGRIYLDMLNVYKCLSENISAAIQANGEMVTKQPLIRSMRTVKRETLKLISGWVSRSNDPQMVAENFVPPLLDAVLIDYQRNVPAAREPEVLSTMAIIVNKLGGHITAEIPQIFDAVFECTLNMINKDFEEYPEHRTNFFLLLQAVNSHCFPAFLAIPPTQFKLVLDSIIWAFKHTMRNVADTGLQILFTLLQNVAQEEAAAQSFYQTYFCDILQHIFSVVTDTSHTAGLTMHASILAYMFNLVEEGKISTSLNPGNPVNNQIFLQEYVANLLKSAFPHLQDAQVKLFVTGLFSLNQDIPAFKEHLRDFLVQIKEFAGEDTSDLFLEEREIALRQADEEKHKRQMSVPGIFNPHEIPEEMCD
# HeLa [8] = assay: Binding affinity to human CRM1 C528S mutant transfected HeLa cells assessed as inhibition of nuclear export of cargoes at 2 uM incubated for 12 hrs by confocal microscope analysis; type: cell-based
# HeLa [9] = assay: Cytotoxicity against human HeLa cells transfected with hCRM1-C528S-mutant assessed as cell viability measured for 72 hrs replaced with compound containing fresh culture medium every 12 hrs by Sulforhodamine B assay; type: functional, cell-based
# A2780 [10] = assay: Induction of apoptosis in human A2780 cells assessed as viable cells at 5 uM replaced with compound containing fresh culture medium every 12 hrs measured for 72 hrs by Annexin V FITC/propidium iodide staining based flow cytometric analysis (reference value: 93.97%); type: functional; details: read-out: Activity
# HeLa [11] = assay: Inhibition of cellular nuclear export in human HeLa cells transfected with hCRM1- C528T/F572Y dual mutant at 10 uM incubated for 72 hrs replaced with compound containing fresh culture medium every 12 hrs by Sulforhodamine B assay; type: functional, cell-based
# HeLa [12] = assay: Binding affinity to human CRM1 C528S mutant transfected HeLa cells assessed as inhibition of nuclear export of cargoes at 10 uM incubated for 12 hrs by confocal microscope analysis; type: cell-based
# A549 [13] = assay: Induction of apoptosis in human A549 cells assessed as cell death at 1 to 10 uM treated for 12 hrs by Annexin V FITC/propidium iodide staining based flow cytometric analysis; type: functional; details: dose 1-10 µM
# A2780 [14] = assay: Induction of apoptosis in human A2780 cells assessed as early apoptotic cells at 1 uM replaced with compound containing fresh culture medium every 12 hrs measured for 72 hrs by Annexin V FITC/propidium iodide staining based flow cytometric analysis (reference value: 3.67%); type: functional
# A549 [15] = assay: Anti-cancer activity against human A549 cells assessed as inhibition of DNA synthesis incubated for 2 hrs by EdU incorporation based assay; type: functional, cell-based; details: dose 1-10 µM
# A549 [16] = assay: Anti-cancer activity against human A549 cells assessed as inhibition of cell viability measured for 72 hrs replaced with compound containing fresh culture medium every 12 hrs by Sulforhodamine B assay; type: functional, cell-based
# HeLa [17] = assay: Anti-cancer activity against human HeLa cells transfected with hCRM1-C528T/K568A dual mutant assessed as measuring cell survival at 10 uM for 72 hrs replaced with compound containing fresh culture medium every 12 hrs by Sulforhodamine B assay; type: functional, cell-based
# A2780 [18] = assay: Anti-cancer activity against human A2780 cells assessed as fold increase Annexin V positive cells at 10 uM incubated for 2 hrs by EdU incorporation based assay; type: functional
# HeLa [19] = assay: Anti-cancer activity against human HeLa cells assessed as inhibition of DNA synthesis at 1 to 10 uM incubated for 2 hrs by EdU incorporation based assay; type: functional, cell-based; details: dose 1-10 µM
# A2780 [20] = assay: Induction of apoptosis in human A2780 cells assessed as necrotic cells at 10 uM replaced with compound containing fresh culture medium every 12 hrs measured for 72 hrs by Annexin V FITC/propidium iodide staining based flow cytometric analysis (reference value: 1%); type: functional
# A2780 [21] = assay: Induction of apoptosis in human A2780 cells assessed as necrotic cells at 1 uM replaced with compound containing fresh culture medium every 12 hrs measured for 72 hrs by Annexin V FITC/propidium iodide staining based flow cytometric analysis (reference value: 1%); type: functional
# A2780 [22] = assay: Induction of apoptosis in human A2780 cells assessed as necrotic cells at 5 uM replaced with compound containing fresh culture medium every 12 hrs measured for 72 hrs by Annexin V FITC/propidium iodide staining based flow cytometric analysis (reference value: 1%); type: functional
# Exportin-1 [23] = molecular target: T1, Exportin-1; assay: Inhibition of MBP-NES PKI binding to human CRM1 in presence RanGTP at 20 uM by pull down assay
# A2780 [24] = assay: Anti-cancer activity against human A2780 cells assessed as fold reduction in DNA synthesis rate at 10 uM incubated for 2 hrs by EdU incorporation based assay; type: functional
# HeLa [25] = assay: Inhibition of cellular nuclear export in human HeLa cells transfected with hCRM1-C528T/K568A dual mutant at 10 uM incubated for 72 hrs replaced with compound containing fresh culture medium every 12 hrs by Sulforhodamine B assay; type: functional, cell-based
# A2780 [26] = assay: Induction of apoptosis in human A2780 cells assessed as viable cells at 10 uM replaced with compound containing fresh culture medium every 12 hrs measured for 72 hrs by Annexin V FITC/propidium iodide staining based flow cytometric analysis (reference value: 93.97%); type: functional; details: read-out: Activity
# A2780 [27] = assay: Anti-cancer activity against human A2780 cells assessed as inhibition of cell viability measured for 72 hrs replaced with compound containing fresh culture medium every 12 hrs by Sulforhodamine B assay; type: functional, cell-based
# A2780 [28] = assay: Induction of apoptosis in human A2780 cells assessed as late apoptotic cells at 5 uM replaced with compound containing fresh culture medium every 12 hrs measured for 72 hrs by Annexin V FITC/propidium iodide staining based flow cytometric analysis (reference value: 1.35%); type: functional
# A2780 [29] = assay: Induction of apoptosis in human A2780 cells assessed as viable cells at 1 uM replaced with compound containing fresh culture medium every 12 hrs measured for 72 hrs by Annexin V FITC/propidium iodide staining based flow cytometric analysis (reference value: 93.97%); type: functional; details: read-out: Activity
# A2780 [30] = assay: Induction of apoptosis in human A2780 cells assessed as early apoptotic cells at 5 uM replaced with compound containing fresh culture medium every 12 hrs measured for 72 hrs by Annexin V FITC/propidium iodide staining based flow cytometric analysis (reference value: 3.67%); type: functional
# HeLa [31] = assay: Inhibition of cellular nuclear export of endogenous cargo RanBP1 in human HeLa cells transfected with pmCherry-C1 plasmid at 1 to 10 uM incubated for 12 hrs by confocal microscope analysis; type: functional, cell-based; details: dose 1-10 µM
# A2780 [32] = assay: Induction of apoptosis in human A2780 cells assessed as late apoptotic cells at 1 uM replaced with compound containing fresh culture medium every 12 hrs measured for 72 hrs by Annexin V FITC/propidium iodide staining based flow cytometric analysis (reference value: 1.35%); type: functional
# Exportin-1 [33] = molecular target: T1, Exportin-1; assay: Binding affinity to Cy3 dye-labelled human CRM1 assessed as dissociation constant in absence of RanGTP at 10 uM incubated for 1 hr by micro-scale thermophoresis analysis
# HeLa [34] = assay: Induction of apoptosis in human HeLa cells assessed as cell death at 1 to 10 uM treated for 12 hrs by Annexin V FITC/propidium iodide staining based flow cytometric analysis; type: functional; details: dose 1-10 µM
# [35] = (§1) Inhibition of cellular nuclear export in human HeLa cells transfected with pmCherry-C1 Cargo plasmid assessed as cytoplasmic cargo level incubated for 12 hrs by confocal microscopic analysis; type: functional, cell-based
# HeLa [36] = assay: as §1; type: functional, cell-based; details: dose 1-10 µM
# HeLa [37] = assay: Anti-cancer activity against human HeLa cells transfected with hCRM1-C528T/F572Y dual mutant assessed as cell survival at 10 uM for 72 hrs replaced with compound containing fresh culture medium every 12 hrs by Sulforhodamine B assay; type: functional, cell-based
# HepG2 [38] = assay: Anti-cancer activity against human HepG2 cells assessed as inhibition of cell viability measured for 72 hrs replaced with compound containing fresh culture medium every 12 hrs by Sulforhodamine B assay; type: functional, cell-based
# A2780 [39] = assay: Induction of apoptosis in human A2780 cells assessed as late apoptotic cells at 10 uM replaced with compound containing fresh culture medium every 12 hrs measured for 72 hrs by Annexin V FITC/propidium iodide staining based flow cytometric analysis (reference value: 1.35%); type: functional
# A2780 [40] = assay: Induction of apoptosis in human A2780 cells assessed as early apoptotic cells at 10 uM replaced with compound containing fresh culture medium every 12 hrs measured for 72 hrs by Annexin V FITC/propidium iodide staining based flow cytometric analysis (reference value: 3.67%); type: functional
# Exportin-1 [41] = molecular target: T1, Exportin-1; assay: Binding affinity to wild type human CRM1 transfected HeLa cells assessed as inhibition of nuclear export of cargoes at 10 uM incubated for 12 hrs by confocal microscope analysis; type: cell-based
# HeLa [42] = assay: Inhibition of cellular nuclear export of transfected cargo in human HeLa cells transfected with pmCherry-C1 plasmid at 1 to 10 uM incubated for 12 hrs by confocal microscope analysis; type: functional, cell-based; details: dose 1-10 µM
# HeLa [43] = assay: Anti-cancer activity against human HeLa cells assessed as inhibition of cell viability measured for 72 hrs replaced with compound containing fresh culture medium every 12 hrs by Sulforhodamine B assay; type: functional, cell-based
smiles,measurement,setting,value
CC1=C(COCCC(C)(C)C)C(=O)N(Nc2ccc(C(F)(F)F)c(Cl)n2)C1=O,Activity,HeLa [1],Active
same,Activity,A549 [2],Active
same,Activity,HCT-116,Active
same,Activity,MGC-803,Active
same,Activity,HepG2 [3],Active
same,Activity,HGC-27,Active
same,Activity,Huh-7,Active
same,Activity,SW48,Active
same,Activity,PANC-1,Active
same,Activity,A2780 [4],Active
CC(C)CCNC/C=C/Sc1cc(C(F)(F)F)cc(C(F)(F)F)c1,Activity,HeLa [5],inactive
[O-][S+](/C=C/CBr)c1cc(C(F)(F)F)cc(C(F)(F)F)c1 (stereo unspecified),inhibition,[6],Active
same,inhibition,Saccharomyces cerevisiae,Active
same,Activity,HeLa [5],inactive
O=C(/C=C\n1cnc(-c2cc(C(F)(F)F)cc(C(F)(F)F)c2)n1)NNc1cnccn1,Activity,HeLa [1],Active
same,Activity,A549 [2],Active
same,Activity,HCT-116,Active
same,inhibition,Exportin-1 [7],inactive
same,inhibition,Saccharomyces cerevisiae,inactive
same,Activity,MGC-803,Active
same,inhibition,HeLa [8],inactive
same,Activity,HepG2 [3],Active
same,Activity,HGC-27,Active
same,Activity,Huh-7,Active
same,Activity,SW48,Active
same,Activity,PANC-1,Active
same,Activity,HeLa [9],inactive
same,Activity,A2780 [4],Active
CC(C)CCNC/C=C/[S+]([O-])c1cc(C(F)(F)F)cc(C(F)(F)F)c1 (stereo unspecified),viability at 5 µM,A2780 [10],79.2%
same,inhibition,HeLa [11],inactive
same,inhibition,HeLa [12],Active
same,Activity,A549 [13],Dose-Dependent Effect
same,Activity,A2780 [14],4.71%
same,Activity,A549 [15],Dose-Dependent Effect
same,Activity,HeLa [1],Active
same,Activity,A549 [2],Active
same,inhibition,[6],Active
same,IC50,A549 [16],6.8 µM
same,IC50,HeLa [17],2 µM
same,Activity,HCT-116,Active
same,fold change (FC),A2780 [18],2
same,Activity,HeLa [19],Dose-Dependent Effect
same,Activity,A2780 [20],4.19%
same,inhibition,Saccharomyces cerevisiae,Active
same,Activity,A2780 [21],1.1%
same,Activity,A2780 [22],1.88%
same,inhibition,Exportin-1 [23],Active
same,fold change (FC),A2780 [24],5
same,inhibition,HeLa [25],inactive
same,viability at 10 µM,A2780 [26],64.4%
same,IC50,A2780 [27],5 µM
same,Activity,A2780 [28],3.29%
same,viability at 1 µM,A2780 [29],92.8%
same,Activity,MGC-803,Active
same,Activity,HepG2 [3],Active
same,Activity,A2780 [30],15.55%
same,Activity,HGC-27,Active
same,inhibition,HeLa [31],Active
same,Activity,A2780 [32],1.33%
same,Kd,Exportin-1 [33],0.024 µM
same,Activity,Huh-7,Active
same,Activity,SW48,Active
same,Activity,HeLa [5],Active
same,Activity,HeLa [34],Dose-Dependent Effect
same,EC50,[35],3.2 µM
same,inhibition,HeLa [36],Dose-Dependent Effect
same,Activity,PANC-1,Active
same,IC50,HeLa [9],5.9 µM
same,IC50,HeLa [37],2.6 µM
same,IC50,HepG2 [38],2.9 µM
same,Activity,A2780 [39],7.14%
same,Activity,A2780 [40],24.26%
same,inhibition,Exportin-1 [41],Active
same,inhibition,HeLa [42],Active
same,IC50,HeLa [43],3.8 µM
same,Activity,A2780 [4],Active
